Experimental data from patent US9993554B2 (CENTRO NACIONAL DE INVESTIGACIONES ONCOLOGICAS (CNIO), priority 2010, dated 2018).
“Also recorded” adds a separate entry of the source.

What was measured:
[1] = test system: obese mice under high-fat diet; assay: Adiposity by dual X-ray absorptiometry (DXA) in treated obese mice; type: in vivo; settings: 2 weeks treatment
Procedure: Mice treated as in FIG. 22 were subjected to dual X-ray absorptiometry (DXA) to determine their relative content of fat and lean tissues (the head and the bone mass is not measured). Determinations were performed one week before starting the treatment (day −7 or D−7), in the middle of the 2 weeks treatment (day 7 or D7, and at the end of the treatment (day 14 or D14). The content of fat is expressed as the percentage of fat relative to the combined fat and lean mass (upper panel). The absolute lean mass is also shown (lower panel). The two panels include data from the assay shown in FIG. 22, as well as the data from our previous assay with Compound A at 15 mg/kg. The percentage of fat and the lean mass of non-obese littermates (always fed with standard diet, SD) is shown in orange for reference.
(§1) Mice were fed either with a standard chow diet (Harlan Teklad 2018, 18% calories from fat) or, when indicated, with a high fat diet (Research Diets D12451, 45% of total calories from fat). To measure food intake, mice were housed in metabolic cages during 5 days, and food and water intake, as well as, the output of faeces and urine were measured during the last 4 days. Body composition (fat and lean content) was determined by Dual energy X-ray Absorptiometry (DXA) (Lunar PIXImus Densitometer, GE Medical Systems). […]

[2] = test system: SCID mice bearing human NSCLC A549 lung tumors; assay: Body weight of SCID mice bearing A549 lung tumor xenografts; type: in vivo; settings: 22 mg/kg orally, 9 doses, SCID mice with A549 xenografts
Procedure: FIG. 41. Body weight evolution of SCID mice bearing human NSCLC A549 lung tumors when treated with Compound A orally, 9 doses of 22 mg/Kg during day 15th and 30th, versus compounds treated with vehicle.
In “normal conditions” no body weight loss is observed.

[3] = test system: obese mice under high-fat diet; assay: Body weight and food intake of obese mice under high-fat diet; type: in vivo; settings: 10 mg/kg, ad libitum high-fat food
Procedure: Obese mice under long-term high-fat (HFD) were dosed with Compound A or with the indicated PI3KI by gavage once per day, during 2 weeks, resting the intervening week-end, and always with ad libitum access to HFD. During the two weeks of treatment, it was scored the amount of food intake (upper left panel) and the change in body weight relative to the initiation of the treatment (upper right panel). The final relative change in body weight is also represented (lower panel). The weight of non-obese littermates (always fed with standard diet, SD) is marked for reference.
as §1, with “Systems). Image acquisition lasted 5 minutes with mice under anesthesia by inhalation of 2% isofluorane in 100% oxygen. The analysis of lean mass and fat mass was performed using a Region Of Interest (ROI) comprising the entire body.” for “Systems).”

[4] = test system: Preadipocytes 3T3-L1 ectopically expressing C/Ebpβ differentiated into brown adipocytes; assay: 3T3-L1/C/Ebpβ differentiated brown adipocytes treated with PI3Ki; type: cell-based; settings: 1 μM, 4 h
Procedure: Mouse Embryonic Fibroblasts (MEFs) were isolated at E13.5 as previously described^42. For insulin stimulation, primary MEFs were serum starved (0% FBS) for 12 h, followed by 60 min incubation with PBS and then stimulated with 1 μg/ml of insulin (Sigma) during 30 min. For oncogenic transformation, primary MEFs were retrovirally transduced with pLXSN-neo-E6 and either pWZL-blast-middle-T (kindly provided by Jean Zhao, Dana-Farber Cancer Institute, Boston) or pBABE-puro-EGFRL858R (kindly provided by William Sellers and Matthew Meyerson, Addgene plasmid #11012)^43. After the corresponding drug selection 20,000 cells were plated in 10 cm diameter plates, and 2 weeks later were fixed and stained with 20% Giemsa. Immortalized brown adipocyte cell lines were obtained from the interscapular BAT of 3-5 day-old neonates, treated with and cultured as previously described^33. For immortalization, cultures were retrovirally transduced with Large-T antigen (in vector pBABE-puro, kindly provided by James de Caprio, Dana Farber Cancer Institute, Boston). For the reprogramming of 3T3-L1 adipocytes into brownadipocytes, we followed the method previously reported^50. Briefly, 3T3-L1 cells were retrovirally transduced with pBABE-puro-Cebpb (kindly provided by Roger R. Gomis, IRB, Barcelona). After drug selection with puromycin, cells were grown to confluence and subsequently cultured for 48 h with “differentiation medium” (DMEM 10% FBS, 20 nM insulin, 1 nM T3, 1 μM rosiglitazone, 0.5 mM isobutylmethylxanthine, 125 nM indomethacin, 5 μM dexamethasone). After this, cells were exposed to “maintenance medium” (DMEM 10% FBS, 20 nM insulin, 1 nM T3) for 4 days. […]
Total RNA from tissues or fibroblasts was extracted using TRIZOL (Invitrogen). Reverse transcription was performed using random primers and Ready-To-Go™ You-Prime First-Strand Beads (GE Healthcare). Quantitative real time-PCR was performed using DNA Master Sybr Green I mix (Applied Biosystems) in an ABI PRISM 7700 thermocycler (Applied Biosystem). […]

[5] = alone or in combination with forskolin

## CS(=O)(=O)N1CCN(Cc2cn3c(Cl)c(-c4cnc(N)nc4)nc(N4CCOCC4)c3n2)CC1 [Compound A]
[1]
  fat mass (DXA): loss of fat mass
  lean mass (DXA): not to a loss of lean mass
[2]
  body weight of non-obese mice: no changes in body weight; also recorded: “lack” of weight loss activity
[3]; gavage once a day for 2 weeks
  decrease of body weight: approx. 10%
[3]; during treatment
  food intake: did not change significantly
[4]
  levels of phospho-Akt: severe decrease
[4]; [5]
  Pgc1α expression: upregulation
  Ucp1 expression: upregulation
